Results published in ChEMBL document CHEMBL1147116 (Antimicrob Agents Chemother, 2007).
In brackets after ≈: the same amount, converted by molar mass.

Key:
Streptococcus pneumoniae [1] = assay: fAUC/MIC ratio of Streptococcus pneumoniae ATCC 49619 at 200 mg
Streptococcus pneumoniae [2] = assay: fAUC/MIC ratio of Streptococcus pneumoniae ATCC 49619 at 400 mg
[3] = Half life at 400 mg/24 hrs regimen in vitro PK model; type: ADME
Streptococcus pneumoniae [4] = assay: Bactericidal activity against Streptococcus pneumoniae ATCC 49619 at fAUC/MIC of 66 after 24 to 96 hrs in pharmacodynamic model
Streptococcus pneumoniae [5] = assay: Bactericidal activity against Streptococcus pneumoniae ATCC 49619 at fAUC/MIC of 60 after 48 hrs in pharmacodynamic model; conditions: ATCC 49619, 48 h
[6] = Half life at 100 mg/24 hrs regimen in vitro PK model; type: ADME
Streptococcus pneumoniae [7] = assay: Bactericidal activity against Streptococcus pneumoniae BSP-2443 at fAUC/MIC of 62 after 24 to 96 hrs in pharmacodynamic model; conditions: BSP2443
Streptococcus pneumoniae [8] = assay: fAUC/MIC ratio of Streptococcus pneumoniae BSP-2443 at 198 mg
Streptococcus pneumoniae [9] = assay: Bactericidal activity against Streptococcus pneumoniae ATCC 49619 at fAUC/MIC of 144 after 24 to 96 hrs in pharmacodynamic model
Streptococcus pneumoniae [10] = assay: Bactericidal activity against Streptococcus pneumoniae ATCC 49619 with Parc S79Y mutation and gyrA S81F mutation at fAUC/MIC of 35 after 96 hrs in pharmacodynamic model; conditions: ATCC 49619, 96 h
Streptococcus pneumoniae [11] = assay: Bactericidal activity against Streptococcus pneumoniae ATCC 49619 with Parc S79Y mutation and gyrA S81F mutation at fAUC/MIC of 35 after 48 hrs in pharmacodynamic model; conditions: ATCC 49619, 48 h
Streptococcus pneumoniae [12] = assay: Bactericidal activity against Streptococcus pneumoniae ATCC 49619 at fAUC/MIC of 67 after 24 to 96 hrs in pharmacodynamic model
Streptococcus pneumoniae [13] = assay: Bactericidal activity against Streptococcus pneumoniae ATCC 49619 with parC S79Y mutation at fAUC/MIC of 60 after 72 hrs in pharmacodynamic model; conditions: ATCC 49619, 72 h
Streptococcus pneumoniae [14] = assay: Bactericidal activity against Streptococcus pneumoniae BSP-2443 with parC S52G, N91D mutation at fAUC/MIC of 51 after 72 hrs in pharmacodynamic model; conditions: BSP2443, 72 h
Streptococcus pneumoniae [15] = assay: Bactericidal activity against Streptococcus pneumoniae ATCC 49619 with Parc S79Y mutation and gyrA S81F mutation at fAUC/MIC of 35 after 72 hrs in pharmacodynamic model; conditions: ATCC 49619, 72 h
[16] = Half life at 150 mg/24 hrs regimen in vitro PK model; type: ADME
Streptococcus pneumoniae [17] = assay: Bactericidal activity against Streptococcus pneumoniae ATCC 49619 with Parc S79Y mutation at fAUC/MIC of 35 after 24 hrs in pharmacodynamic model; conditions: ATCC 49619, 24 h
[18] = Peak free concentration at 175 mg/24 hrs regimen in vitro PK model; type: ADME
[19] = Peak free concentration at 400 mg/24 hrs regimen in vitro PK model; type: ADME
Streptococcus pneumoniae [20] = assay: fAUC/MIC ratio of Streptococcus pneumoniae ATCC 49619 at 150 mg
[21] = Half life at 175 mg/24 hrs regimen in vitro PK model; type: ADME
[22] = Peak free concentration at 200 mg/24 hrs regimen in vitro PK model; type: ADME
[23] = Peak free concentration at 150 mg/24 hrs regimen in vitro PK model; type: ADME
Streptococcus pneumoniae [24] = assay: Bactericidal activity against Streptococcus pneumoniae BSP-2443 with parC S52G, N91D mutation and gyrA S114G mutation at fAUC/MIC of 51 after 96 hrs in pharmacodynamic model; conditions: BSP2443, 96 h
Streptococcus pneumoniae [25] = assay: Susceptibility of Streptococcus pneumoniae ATCC 49619 by microdilution method; type: functional
Streptococcus pneumoniae [26] = assay: Susceptibility of Streptococcus pneumoniae BSP-2443 by microdilution method; type: functional; conditions: BSP2443
Streptococcus pneumoniae [27] = assay: Bactericidal activity against Streptococcus pneumoniae ATCC 49619 with S79Y Parc mutation and S81F gyrA mutation at fAUC/MIC of 60 after 96 hrs in pharmacodynamic model; conditions: ATCC 49619, 96 h
Streptococcus pneumoniae [28] = assay: Bactericidal activity against Streptococcus pneumoniae BSP-2443 at fAUC/MIC of 51 after 24 to 48 hrs in pharmacodynamic model; conditions: BSP2443
[29] = Peak free concentration at 100 mg/24 hrs regimen in vitro PK model; type: ADME
Streptococcus pneumoniae [30] = assay: fAUC/MIC ratio of Streptococcus pneumoniae BSP-2443 at 235 mg
Streptococcus pneumoniae [31] = assay: fAUC/MIC ratio of Streptococcus pneumoniae ATCC 49619 at 100 mg
[32] = Half life at 200 mg/24 hrs regimen in vitro PK model; type: ADME
Streptococcus pneumoniae [33] = assay: Bactericidal activity against Streptococcus pneumoniae ATCC 49619 at fAUC/MIC of 60 after 24 hrs in pharmacodynamic model; conditions: ATCC 49619, 24 h
Streptococcus pneumoniae [34] = assay: fAUC/MIC ratio of Streptococcus pneumoniae ATCC 49619 at 175 mg
Streptococcus pneumoniae [35] = assay: fAUC/MIC ratio of Streptococcus pneumoniae ATCC 49610 at 320 mg
Streptococcus pneumoniae [36] = assay: fAUC/MIC ratio of Streptococcus pneumoniae ATCC 49610 at 75 mg
[37] = Peak free concentration at 320 mg/24 hrs regimen in vitro PK model; type: ADME
[38] = Peak free concentration at 50 mg/24 hrs regimen in vitro PK model; type: ADME
[39] = Half life at 320 mg/24 hrs regimen in vitro PK model; type: ADME
[40] = Peak free concentration at 250 mg/24 hrs regimen in vitro PK model; type: ADME
Streptococcus pneumoniae [41] = assay: fAUC/MIC ratio of Streptococcus pneumoniae BSP-2443 at 50 mg
Streptococcus pneumoniae [42] = assay: fAUC/MIC ratio of Streptococcus pneumoniae BSP-2443 at 75 mg
Streptococcus pneumoniae [43] = assay: Bactericidal activity against Streptococcus pneumoniae ATCC 49619 at fAUC/MIC of 146 after 24 to 96 hrs in pharmacodynamic model
Streptococcus pneumoniae [44] = assay: fAUC/MIC ratio of Streptococcus pneumoniae ATCC 49610 at 250 mg
[45] = Half life at 250 mg/24 hrs regimen in vitro PK model; type: ADME
Streptococcus pneumoniae [46] = assay: Bactericidal activity against Streptococcus pneumoniae BSP-2443 at fAUC/MIC of 34 after 24 to 48 hrs in pharmacodynamic model; conditions: BSP2443
Streptococcus pneumoniae [47] = assay: fAUC/MIC ratio of Streptococcus pneumoniae BSP-2443 at 100 mg
Streptococcus pneumoniae [48] = assay: Bactericidal activity against Streptococcus pneumoniae ATCC 49619 at fAUC/MIC of 50.5 after 24 to 96 hrs in pharmacodynamic model
[49] = Peak free concentration at 75 mg/24 hrs regimen in vitro PK model; type: ADME
Streptococcus pneumoniae [50] = assay: Bactericidal activity against Streptococcus pneumoniae BSP-2443 at fAUC/MIC of 60.2 after 24 to 96 hrs in pharmacodynamic model; conditions: BSP2443
Streptococcus pneumoniae [51] = assay: Bactericidal activity against Streptococcus pneumoniae ATCC 49619 with parC S79Y mutation at fAUC/MIC of 37 after 96 hrs in pharmacodynamic model; conditions: ATCC 49619, 96 h
Streptococcus pneumoniae [52] = assay: fAUC/MIC ratio of Streptococcus pneumoniae ATCC 49610 at 50 mg
Streptococcus pneumoniae [53] = assay: Bactericidal activity against Streptococcus pneumoniae ATCC 49619 at fAUC/MIC of 65.3 after 24 to 96 hrs in pharmacodynamic model
Streptococcus pneumoniae [54] = assay: Bactericidal activity against Streptococcus pneumoniae ATCC 49619 with parC S79Y mutation at fAUC/MIC of 37 after 72 hrs in pharmacodynamic model; conditions: ATCC 49619, 72 h
Streptococcus pneumoniae [55] = assay: Bactericidal activity against Streptococcus pneumoniae ATCC 49619 at fAUC/MIC of 37 after 24 to 48 hrs in pharmacodynamic model
Streptococcus pneumoniae [56] = assay: Bactericidal activity against Streptococcus pneumoniae BSP-2443 with parC S79Y, S52G, N91D mutation and gyrA S114G mutation at fAUC/MIC of 34 after 72 to 96 hrs in pharmacodynamic model; conditions: BSP2443
Streptococcus pneumoniae [57] = assay: Bactericidal activity against Streptococcus pneumoniae ATCC 49619 at fAUC/MIC of 119 after 24 to 96 hrs in pharmacodynamic model
Streptococcus pneumoniae [58] = assay: Bactericidal activity against Streptococcus pneumoniae BSP-2443 at fAUC/MIC of 51.3 after 24 to 96 hrs in pharmacodynamic model; conditions: BSP2443
[59] = Half life at 50 mg/24 hrs regimen in vitro PK model; type: ADME
[60] = Half life at 75 mg/24 hrs regimen in vitro PK model; type: ADME
Streptococcus pneumoniae [61] = assay: Bactericidal activity against Streptococcus pneumoniae ATCC 49619 at fAUC/MIC of 78 after 24 to 96 hrs in pharmacodynamic model

## COc1c(N2CCNC(C)C2)c(F)cc2c(=O)c(C(=O)O)cn(C3CC3)c12 (centres undefined) [GATIFLOXACIN]
Streptococcus pneumoniae [1]
  fAUC/MIC: 67
Streptococcus pneumoniae [2]
  fAUC/MIC: 144
[3]
  half-life: 8.01 h
Streptococcus pneumoniae [4]
  MIC: 0.19 µg/mL
Streptococcus pneumoniae [5]
  MIC: 0.25 µg/mL
[6]
  half-life: 7.65 h
Streptococcus pneumoniae [7]
  MIC: 0.25 µg/mL
Streptococcus pneumoniae [8]
  fAUC/MIC: 51
Streptococcus pneumoniae [9]
  MIC: 0.19 µg/mL
Streptococcus pneumoniae [10]
  MIC: 8 µg/mL
Streptococcus pneumoniae [11]
  MIC: 6 µg/mL
Streptococcus pneumoniae [12]
  MIC: 0.19 µg/mL
Streptococcus pneumoniae [13]
  MIC: 0.75 µg/mL
Streptococcus pneumoniae [14]
  MIC: 0.38 µg/mL
Streptococcus pneumoniae [15]
  MIC: 6 µg/mL
[16]
  half-life: 8.16 h
Streptococcus pneumoniae [17]
  MIC: 0.38 µg/mL
[18]
  Activity: 1.22 µg/mL
[19]
  Activity: 2.79 µg/mL
Streptococcus pneumoniae [20]
  fAUC/MIC: 60
[21]
  half-life: 7.57 h
[22]
  Activity: 1.38 µg/mL
[23]
  Activity: 1.13 µg/mL
Streptococcus pneumoniae [24]
  MIC: 3 µg/mL
Streptococcus pneumoniae [25]
  MIC: 0.025 µg/mL (≈ 0.0666 µM)
Streptococcus pneumoniae [26]
  MIC: 0.025 µg/mL (≈ 0.0666 µM)
Streptococcus pneumoniae [27]
  MIC: 4 µg/mL
Streptococcus pneumoniae [28]
  MIC: 0.25 µg/mL
[29]
  Activity: 0.71 µg/mL
Streptococcus pneumoniae [30]
  fAUC/MIC: 62
Streptococcus pneumoniae [31]
  fAUC/MIC: 35
[32]
  half-life: 8.65 h
Streptococcus pneumoniae [33]
  MIC: 0.25 µg/mL
Streptococcus pneumoniae [34]
  fAUC/MIC: 66

## CO/N=C1\CN(c2nc3c(cc2F)c(=O)c(C(=O)O)cn3C2CC2)CC1CN (centres undefined) [GEMIFLOXACIN]
Streptococcus pneumoniae [35]
  fAUC/MIC: 146
Streptococcus pneumoniae [36]
  fAUC/MIC: 50.5
[37]
  Activity: 0.62 µg/mL
[38]
  Activity: 0.12 µg/mL
[39]
  half-life: 7.58 h
[40]
  Activity: 0.51 µg/mL
Streptococcus pneumoniae [41]
  fAUC/MIC: 34
Streptococcus pneumoniae [42]
  fAUC/MIC: 51.3
Streptococcus pneumoniae [43]
  MIC: 0.03 µg/mL
Streptococcus pneumoniae [44]
  fAUC/MIC: 119
[45]
  half-life: 7.22 h
[6]
  half-life: 8.22 h
Streptococcus pneumoniae [46]
  MIC: 0.03 µg/mL
Streptococcus pneumoniae [47]
  fAUC/MIC: 69.2
[16]
  half-life: 7.5 h
Streptococcus pneumoniae [48]
  MIC: 0.03 µg/mL
[49]
  Activity: 0.17 µg/mL
Streptococcus pneumoniae [50]
  MIC: 0.03 µg/mL
Streptococcus pneumoniae [51]
  MIC: 0.25 µg/mL
Streptococcus pneumoniae [52]
  fAUC/MIC: 37
Streptococcus pneumoniae [20]
  fAUC/MIC: 78
Streptococcus pneumoniae [53]
  MIC: 0.03 µg/mL
Streptococcus pneumoniae [54]
  MIC: 0.25 µg/mL
Streptococcus pneumoniae [55]
  MIC: 0.03 µg/mL
[23]
  Activity: 0.31 µg/mL
Streptococcus pneumoniae [56]
  MIC: 0.125 µg/mL
Streptococcus pneumoniae [25]
  MIC: 0.025 µg/mL (≈ 0.0642 µM)
Streptococcus pneumoniae [26]
  MIC: 0.025 µg/mL (≈ 0.0642 µM)
Streptococcus pneumoniae [57]
  MIC: 0.03 µg/mL
[29]
  Activity: 0.23 µg/mL
Streptococcus pneumoniae [58]
  MIC: 0.03 µg/mL
[59]
  half-life: 7.45 h
Streptococcus pneumoniae [31]
  fAUC/MIC: 65.3
[60]
  half-life: 7.19 h
Streptococcus pneumoniae [61]
  MIC: 0.03 µg/mL
